Reference: patent US7416885B2, “Proliferated cell lines and uses thereof” (University of South Florida, priority 2002, dated 2008)

Assays:
[1] = molecular target: T1, receptors for dihydropyridines (Homo sapiens, UniProt Q13698); assay: dihydropyridine ([3H]PN200-110) binding to RCMH cells
T1 construct: endogenous in cells; host or cells: RCMH (immortalized human skeletal muscle cell line)

[2] = system: MAO B activity in RCSN-3 cell lysates; assay: MPP+ production by RCSN-3 cell lysates incubated with MPTP (HPLC); type: biochemical, rat
Protocol: To verify if RCSN-3 cells can produce MPP^+ from MPTP, lisates of RCSN-3 cells (differentiated and non-differentiated) were incubated with MPTP. Differentiation was induced by culturing in F10 media+2% adult bovine serum for one week. Non-differentiated conditions were attained with F10 media+10% adult bovine serum and 2.5% fetal bovine serum. Lisate buffer was PBS with 50 μM PMSF and a protease inhibiting cocktail (leupeptin, pepstatine, chemostatin). Samples were incubated with MPTP and MPP^+ for 15 min. at 37° C. HPLC studies were carried out in a SHIMADZU HPLC with […], reading at 245 nm. Results are shown in FIGS. 16A–C, FIGS. 17A–D, and FIGS. 18A–C.

RCSN-3 cells [3] = system: RCSN-3 cells
RCSN cells = assay: intracellular Ca2+ imaging in Fluo-3 loaded RCSN cells; type: cell-based, rat; conditions: differentiated cells, 200 μM glutamate applied externally
RCSN-3 cells [4] = system: RCSN-3 cells; remark: listed apart in the source
[5] = molecular target: microsomal fraction from RCVC cells (Rattus norvegicus, UniProt P22002); assay: 3H-nitrendipine binding to microsomal fraction of RCVC cells; conditions: read-out: equilibrium dissociation constant
[6] = molecular target: single class of receptors for [3H]en-TTX; type: binding, rat
RCVC cells = assay: 45Ca2+ influx in RCVC cells; type: cell-based, rat; conditions: normally polarized cells
[7] = molecular target: receptors for α-bungarotoxin (Homo sapiens, UniProt P02708+P07510+Q07001); type: binding
RCSN-3 cells [8] = assay: melanin fluorescence in RCSN-3 cells preincubated with L-Dopa; type: cell-based, rat; conditions: for melanin, mean: L-DOPA, n 3 (ANOVA summary); for melanin, Average: L-DOPA (+), 100 microM, 24 hrs
Protocol: RCSN-3 cells were preincubated for 24 hrs in the presence of 100 microM L-Dopa. Cells were lysed with a hypotonic buffer. […] Oxidation of melanin in vitro degraded the melanin polymer, resulting in a fluorescent solution. Fluorescence spectroscopy gave an excitation maximum at approximately 470 nm and an emission maximum at approximately 540 nm for both natural and synthetic melanin. Increasing the time of exposure to light or hydrogen peroxide increased melanin fluorescence (Kayatz, P et al., Invest Ophthalmol Vis Sci, January 2001,42(1):241–6).

UCHCC1 cells = type: cell-based, rat; conditions: read-out: half-maximal inhibitory concentration

T1 sequence (Q13698 whole entry): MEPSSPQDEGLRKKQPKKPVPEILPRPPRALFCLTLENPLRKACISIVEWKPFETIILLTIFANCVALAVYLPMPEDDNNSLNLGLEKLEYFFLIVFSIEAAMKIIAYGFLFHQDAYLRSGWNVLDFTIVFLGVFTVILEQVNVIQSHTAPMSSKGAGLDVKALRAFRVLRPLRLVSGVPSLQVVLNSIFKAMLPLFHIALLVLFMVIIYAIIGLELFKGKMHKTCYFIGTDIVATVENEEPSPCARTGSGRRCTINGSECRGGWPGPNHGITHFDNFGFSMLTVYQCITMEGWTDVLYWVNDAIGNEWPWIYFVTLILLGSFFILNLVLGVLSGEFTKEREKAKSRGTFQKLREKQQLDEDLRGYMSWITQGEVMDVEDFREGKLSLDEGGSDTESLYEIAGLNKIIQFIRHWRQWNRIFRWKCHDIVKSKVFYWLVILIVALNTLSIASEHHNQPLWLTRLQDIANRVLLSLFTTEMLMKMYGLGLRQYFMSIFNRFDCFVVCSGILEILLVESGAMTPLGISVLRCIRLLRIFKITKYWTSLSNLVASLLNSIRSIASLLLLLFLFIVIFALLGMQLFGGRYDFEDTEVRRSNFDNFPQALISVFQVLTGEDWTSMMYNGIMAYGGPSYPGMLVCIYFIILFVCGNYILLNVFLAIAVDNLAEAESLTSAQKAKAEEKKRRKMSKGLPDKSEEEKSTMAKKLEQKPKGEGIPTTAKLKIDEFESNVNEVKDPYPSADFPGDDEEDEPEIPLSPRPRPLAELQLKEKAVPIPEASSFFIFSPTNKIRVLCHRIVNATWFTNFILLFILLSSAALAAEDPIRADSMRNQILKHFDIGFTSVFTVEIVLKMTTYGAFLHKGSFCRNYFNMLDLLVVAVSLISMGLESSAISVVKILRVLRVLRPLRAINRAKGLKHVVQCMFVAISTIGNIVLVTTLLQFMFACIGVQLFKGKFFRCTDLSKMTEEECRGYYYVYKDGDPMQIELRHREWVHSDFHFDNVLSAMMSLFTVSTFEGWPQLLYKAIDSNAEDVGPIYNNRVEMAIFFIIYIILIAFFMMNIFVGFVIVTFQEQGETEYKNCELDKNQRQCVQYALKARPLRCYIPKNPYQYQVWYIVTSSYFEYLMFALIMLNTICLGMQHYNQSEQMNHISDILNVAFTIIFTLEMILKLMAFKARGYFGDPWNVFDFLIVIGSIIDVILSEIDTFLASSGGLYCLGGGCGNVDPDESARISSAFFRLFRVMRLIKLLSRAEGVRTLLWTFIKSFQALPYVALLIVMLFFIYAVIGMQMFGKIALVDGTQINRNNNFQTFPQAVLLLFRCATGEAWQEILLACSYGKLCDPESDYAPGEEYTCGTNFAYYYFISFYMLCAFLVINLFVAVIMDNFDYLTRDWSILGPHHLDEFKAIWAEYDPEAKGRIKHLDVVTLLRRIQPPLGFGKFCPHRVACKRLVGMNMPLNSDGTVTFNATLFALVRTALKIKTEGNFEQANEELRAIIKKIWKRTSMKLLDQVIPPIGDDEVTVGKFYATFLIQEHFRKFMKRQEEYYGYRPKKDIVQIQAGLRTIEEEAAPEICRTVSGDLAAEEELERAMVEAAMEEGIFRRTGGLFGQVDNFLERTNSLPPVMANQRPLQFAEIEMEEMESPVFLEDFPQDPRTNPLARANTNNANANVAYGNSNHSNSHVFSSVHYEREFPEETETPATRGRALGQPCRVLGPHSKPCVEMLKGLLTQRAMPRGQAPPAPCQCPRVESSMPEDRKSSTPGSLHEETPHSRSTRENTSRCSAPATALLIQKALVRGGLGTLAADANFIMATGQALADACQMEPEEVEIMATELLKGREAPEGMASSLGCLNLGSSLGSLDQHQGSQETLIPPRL
Sequence of receptors for α-bungarotoxin (P02708 21-457 limits assumed): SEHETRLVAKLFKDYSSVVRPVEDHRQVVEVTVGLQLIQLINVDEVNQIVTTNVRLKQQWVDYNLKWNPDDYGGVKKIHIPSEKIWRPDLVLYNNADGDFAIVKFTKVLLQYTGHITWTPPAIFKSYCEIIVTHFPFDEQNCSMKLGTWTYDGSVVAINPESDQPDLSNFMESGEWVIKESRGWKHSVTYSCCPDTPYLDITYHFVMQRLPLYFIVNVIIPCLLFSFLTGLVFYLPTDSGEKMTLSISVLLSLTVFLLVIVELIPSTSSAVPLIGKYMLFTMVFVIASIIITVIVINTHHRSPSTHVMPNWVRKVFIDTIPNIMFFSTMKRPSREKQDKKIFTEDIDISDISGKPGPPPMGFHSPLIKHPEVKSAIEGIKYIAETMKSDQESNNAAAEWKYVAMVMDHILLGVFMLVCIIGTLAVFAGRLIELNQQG
Sequence of receptors for α-bungarotoxin (P07510 23-517 limits assumed): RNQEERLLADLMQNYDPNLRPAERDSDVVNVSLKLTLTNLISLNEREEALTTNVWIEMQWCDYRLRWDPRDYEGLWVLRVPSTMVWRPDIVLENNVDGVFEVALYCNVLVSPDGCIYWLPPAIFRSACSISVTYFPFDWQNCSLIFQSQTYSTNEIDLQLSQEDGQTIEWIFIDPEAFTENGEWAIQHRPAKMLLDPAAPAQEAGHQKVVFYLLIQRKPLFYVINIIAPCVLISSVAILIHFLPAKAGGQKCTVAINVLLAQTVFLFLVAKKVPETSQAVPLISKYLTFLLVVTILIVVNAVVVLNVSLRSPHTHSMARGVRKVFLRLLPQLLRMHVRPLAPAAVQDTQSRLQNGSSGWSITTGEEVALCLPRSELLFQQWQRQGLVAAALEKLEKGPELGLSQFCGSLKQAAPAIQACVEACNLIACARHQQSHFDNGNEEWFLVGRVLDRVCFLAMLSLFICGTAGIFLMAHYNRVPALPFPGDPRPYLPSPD
Sequence of receptors for α-bungarotoxin (Q07001 22-517 limits assumed): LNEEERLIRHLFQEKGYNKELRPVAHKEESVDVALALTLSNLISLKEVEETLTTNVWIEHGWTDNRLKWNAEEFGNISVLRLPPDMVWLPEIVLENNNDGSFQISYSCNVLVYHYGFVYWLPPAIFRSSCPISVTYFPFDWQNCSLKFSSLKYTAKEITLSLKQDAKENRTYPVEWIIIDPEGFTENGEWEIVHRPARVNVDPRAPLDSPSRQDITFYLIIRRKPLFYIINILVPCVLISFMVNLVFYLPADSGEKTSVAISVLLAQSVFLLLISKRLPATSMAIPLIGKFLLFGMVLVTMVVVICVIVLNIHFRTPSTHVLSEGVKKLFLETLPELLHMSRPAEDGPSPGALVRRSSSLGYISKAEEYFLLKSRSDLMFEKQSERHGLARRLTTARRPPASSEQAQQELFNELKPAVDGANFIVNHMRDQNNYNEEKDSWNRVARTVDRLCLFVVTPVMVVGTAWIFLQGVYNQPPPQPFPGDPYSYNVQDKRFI

Molecule: COC(=O)C1=C(C)NC(C)=C(C(=O)OC(C)C)C1c1cccc2nonc12 (centres unmarked) [[^3H]PN200-110]
- Bmax [1]: 0.3 pmol/mg protein
- Kd [1]: 0.5 nM

Molecule: CN1CC=C(c2ccccc2)CC1 [MPTP, 1-methyl-4-phenyl-1,2,3,6-tetrahydropyridine]
- production of MPP+ from MPTP [2]: no production of MPP^+

Molecule: NCCc1ccc(O)c(O)c1 [dopamine]
- mitochondrial membrane potential (JC-1 fluorescence) (RCSN-3 cells [3]): decrease in membrane potential
- ratio of emission between JC-1 and J monomer, normalized to basal fluorescence (RCSN-3 cells [3]): significant differences from controls

Molecule: N[C@@H](CCC(=O)O)C(=O)O [glutamate]
- cells responding with increases in Ca2+ (RCSN cells): up to 40%

Molecule: C[n+]1ccc(-c2ccccc2)cc1 [MPP+, 1-methyl-4-phenylpyridinium]
- mitochondrial membrane potential (JC-1 fluorescence) (RCSN-3 cells [3]): affects mitochondrial function
- ratio of emission between JC-1 and J monomer, normalized to basal fluorescence (RCSN-3 cells [3]): significant differences from controls
- DNA fragmentation (TUNEL) (RCSN-3 cells [4]): fragmentation of DNA

Molecule: CCOC(=O)C1=C(C)NC(C)=C(C(=O)OC)C1c1cccc([N+](=O)[O-])c1 (centres unmarked) [^3H-nitrendipine, nitrendipine]
- Kd [5]: 0.7 nM

Molecule: [^3H]ethylenediamine-tetrodotoxin [[^3H]en-TTX]
- Kd [6]: 1.1 nM
- maximal binding (Bmax) [6]: 173 fmol/mg protein

Molecule: [Mn+2] [manganese]
- mitochondrial membrane potential (JC-1 fluorescence) (RCSN-3 cells [3]): decrease in membrane potential
- ratio of emission between JC-1 and J monomer, normalized to basal fluorescence (RCSN-3 cells [3]): significant differences from controls

Molecule: CCOC(=O)C1=C(C)NC2=C(C(=O)OC2)C1c1ccccc1OC(F)F (centres unmarked) [CGP-28392]
- 45Ca2+ influx induced by calcium channel agonist (RCVC cells): equivalent influx

Molecule: α-bungarotoxin
- Bmax [7]: 0.7 pmol/mg protein
- Kd [7]: 1.5 nM

Molecule: N[C@@H](Cc1ccc(O)c(O)c1)C(=O)O [L-DOPA, levodopa]
- melanin, mean (RCSN-3 cells [8]; Glass): 0.03305
- melanin, mean (RCSN-3 cells [8]; Plastic): 0.04045
- melanin, Average (RCSN-3 cells [8]; glass dishes): 0.033
- melanin, Average (RCSN-3 cells [8]; plastic dishes): 0.040

Molecule: COC(=O)C1=C(C)NC(C)=C([N+](=O)[O-])C1c1ccccc1C(F)(F)F (centres unmarked) [BAYK-8644]
- 45Ca2+ influx induced by calcium channel agonist (RCVC cells): equivalent influx

Molecule: NC1=N[C@H](O)[C@H]2[C@H]3O[C@]4(O)O[C@@H]([C@@H](O)[C@@]2(N1)[C@@H]4O)[C@]3(O)CO [tetrodotoxin]
- IC50 (UCHCC1 cells): 0.9 nM
